Experimental data as given in patent US11053256B2, “Dihydropyranopyrimidines for the treatment of viral infections” (Janssen Sciences Ireland Unlimited Company, priority 2016, dated 2021).

Tests used:
[1] = molecular target: T1, human TLR7 (Homo sapiens, UniProt Q9NYK1); test: Human TLR7 cellular reporter assay (HEK293, NFkB-luc); assay type: cell-based; details: HEK293 cells transiently transfected with TLR7 and NFkB-luc; 6 hours incubation; lowest effective concentration
T1 construct: expressed in transfected cells; host or cells: HEK293
T1 sequence (Q9NYK1 27-1049): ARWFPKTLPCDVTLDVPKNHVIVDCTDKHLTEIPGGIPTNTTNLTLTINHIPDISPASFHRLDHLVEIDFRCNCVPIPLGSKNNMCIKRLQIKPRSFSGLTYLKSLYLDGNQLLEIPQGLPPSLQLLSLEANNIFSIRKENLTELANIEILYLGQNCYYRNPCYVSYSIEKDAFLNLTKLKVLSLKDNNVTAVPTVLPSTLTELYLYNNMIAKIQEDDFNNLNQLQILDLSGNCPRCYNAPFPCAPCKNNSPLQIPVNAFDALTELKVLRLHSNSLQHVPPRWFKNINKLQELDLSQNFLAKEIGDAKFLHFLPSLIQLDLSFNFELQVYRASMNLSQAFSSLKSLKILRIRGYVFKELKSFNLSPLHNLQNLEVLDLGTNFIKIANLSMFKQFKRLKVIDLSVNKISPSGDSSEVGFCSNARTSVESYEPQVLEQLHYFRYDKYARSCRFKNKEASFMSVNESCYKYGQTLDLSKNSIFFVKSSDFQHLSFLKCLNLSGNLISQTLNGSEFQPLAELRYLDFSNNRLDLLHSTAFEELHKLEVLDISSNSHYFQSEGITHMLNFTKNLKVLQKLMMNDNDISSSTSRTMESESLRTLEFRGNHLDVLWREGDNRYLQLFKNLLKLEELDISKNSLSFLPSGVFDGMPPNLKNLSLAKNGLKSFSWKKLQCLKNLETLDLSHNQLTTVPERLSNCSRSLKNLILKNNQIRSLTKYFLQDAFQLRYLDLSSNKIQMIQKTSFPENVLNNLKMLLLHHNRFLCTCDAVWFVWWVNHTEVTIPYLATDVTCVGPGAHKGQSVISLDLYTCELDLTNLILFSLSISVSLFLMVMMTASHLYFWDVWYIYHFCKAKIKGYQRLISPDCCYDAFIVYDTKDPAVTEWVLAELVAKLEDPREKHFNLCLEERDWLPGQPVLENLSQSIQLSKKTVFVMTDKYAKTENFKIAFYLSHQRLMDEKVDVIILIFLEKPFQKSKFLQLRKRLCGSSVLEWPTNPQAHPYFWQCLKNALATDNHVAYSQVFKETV
Method: (§1) Assessment of human TLR7 and human TLR8 activity. The ability of compounds to activate human TLR7 and/or TLR8 was assessed in a cellular reporter assay using HEK293 cells transiently transfected with a TLR7 or TLR8 expression vector and NFkB-luc reporter construct.
(§2) Briefly, HEK293 cells were grown in culture medium (DMEM supplemented with 10% FCS and 2 mM glutamine). For transfection of cells in 15 cm dishes, cells were detached with Trypsin-EDTA, transfected with a mix of CMV-TLR7 or TLR8 plasmid (1700 ng), NFkB-luc plasmid (850 ng) and a transfection reagent and incubated for 48 h at 37° C. in a humidified 5% CO2 atmosphere. Transfected cells were then washed in PBS, detached with Trypsin-EDTA and resuspended in medium to a density of 1.25×10^5 cells/mL. Forty microliters of cells were then dispensed into each well in 384-well plates, where 200 nL of compound in 100% DMSO was already present. Following 6 hours incubation at 37° C., 5% CO2, the luciferase activity was determined by adding 15 μL of Steady Lite Plus substrate (Perkin Elmer) to each well and readout performed on a ViewLux ultraHTS microplate imager (Perkin Elmer). Dose response curves were generated from measurements performed in quadruplicates. Lowest effective concentrations (LEC) values, defined as the concentration that induces an effect which is at least two fold above the standard deviation of the assay, were determined for each compound.

[2] = molecular target: T2, human TLR8 (Homo sapiens, UniProt Q9NR97); test: Human TLR8 cellular reporter assay (HEK293, NFkB-luc); assay type: cell-based; details: HEK293 cells transiently transfected with TLR8 and NFkB-luc; 6 hours incubation; lowest effective concentration
T2 construct: expressed in transfected cells; host or cells: HEK293
T2 sequence (Q9NR97 27-1041): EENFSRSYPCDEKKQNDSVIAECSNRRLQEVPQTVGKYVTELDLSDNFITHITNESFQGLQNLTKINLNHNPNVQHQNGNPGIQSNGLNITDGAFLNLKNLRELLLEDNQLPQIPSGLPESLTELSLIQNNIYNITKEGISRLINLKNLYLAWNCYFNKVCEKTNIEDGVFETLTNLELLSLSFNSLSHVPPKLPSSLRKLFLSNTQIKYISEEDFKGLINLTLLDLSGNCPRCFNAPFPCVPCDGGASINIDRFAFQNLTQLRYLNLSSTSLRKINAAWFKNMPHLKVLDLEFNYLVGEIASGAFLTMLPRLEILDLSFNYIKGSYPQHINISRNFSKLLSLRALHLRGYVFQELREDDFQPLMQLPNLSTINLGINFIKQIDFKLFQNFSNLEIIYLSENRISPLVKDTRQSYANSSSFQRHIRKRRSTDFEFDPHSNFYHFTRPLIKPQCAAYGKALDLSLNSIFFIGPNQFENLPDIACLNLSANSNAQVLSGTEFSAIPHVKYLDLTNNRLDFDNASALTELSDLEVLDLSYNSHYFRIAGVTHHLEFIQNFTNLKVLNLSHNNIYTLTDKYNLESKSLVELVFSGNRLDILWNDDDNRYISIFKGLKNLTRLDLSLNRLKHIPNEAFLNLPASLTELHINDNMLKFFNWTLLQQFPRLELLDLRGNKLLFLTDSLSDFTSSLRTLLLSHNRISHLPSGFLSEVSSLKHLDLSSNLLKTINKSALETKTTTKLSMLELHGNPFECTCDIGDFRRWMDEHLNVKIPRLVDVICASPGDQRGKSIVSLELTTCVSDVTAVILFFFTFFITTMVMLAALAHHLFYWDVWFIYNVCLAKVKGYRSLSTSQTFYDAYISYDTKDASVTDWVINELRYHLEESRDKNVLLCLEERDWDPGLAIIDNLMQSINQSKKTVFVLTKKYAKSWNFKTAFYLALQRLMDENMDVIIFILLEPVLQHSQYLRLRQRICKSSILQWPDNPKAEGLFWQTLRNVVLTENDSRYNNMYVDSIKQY
Method: as §1, §2

Human TLR 7 (LEC) [1] [µM] | Human TLR 8 (LEC) [2] [µM] | Structure (SMILES)
0.8 | 0.1 | CCCCNc1nc(N)nc2c1OCCC2 [Compound 13, N^4-butyl-7,8-dihydro-6H-pyrano[3,2-d]pyrimidine-2,4-diamine]
32.5 | 0.1 | CCCC[C@H](CO)Nc1nc(N)nc2c1OCCC2 [Compound 14, (2R)-2-[(2-amino-7,8-dihydro-6H-pyrano[3,2-d]pyrimidin-4-yl)amino]hexan-1-ol]
>100 | 1.4 | CCCC[C@H](CO)Nc1nc(N)nc2c1CCOC2 [Compound 8, (2R)-2-[(2-amino-5,8-dihydro-6H-pyrano[3,4-d]pyrimidin-4-yl)amino]hexan-1-ol]
>100 | 1.3 | CCCC[C@H](CO)Nc1nc(N)nc2c1COCC2 [Compound 4, (2R)-2-[(2-amino-7,8-dihydro-5H-pyrano[4,3-d]pyrimidin-4-yl)amino]hexan-1-ol]
4.7 | 0.5 | CCCCNc1nc(N)nc2c1CCOC2 [Compound 7, N^4-butyl-5,8-dihydro-6H-pyrano[3,4-d]pyrimidine-2,4-diamine]
14.8 | 1.0 | CCCCNc1nc(N)nc2c1COCC2 [Compound 3, N^4-butyl-7,8-dihydro-5H-pyrano[4,3-d]pyrimidine-2,4-diamine]
